Reference: patent US5576323A, “Excitatory amino acid receptor antagonists” (Eli Lilly and Company, priority 1994, dated 1996)

These compounds were tested on metabotropic glutamate receptors (assay: displacement of 1S,3R-ACPD-sensitive [3H]glutamate binding to rat forebrain crude membranes). Conditions: 100 μM, mixture of enantiomers unless otherwise noted.
Protocol: The binding of [^3 H]glutamate was conducted with crude membranes of rat forebrain as described by Schoepp and True. Schoepp and True, Neuroscience Lett., 145, 100-104 (1992), True and Schoepp, Society for Neuroscience Abstracts, 19, 470 (1993) and Wright, McDonald and Schoepp, J. Neurochem. 63: 938-945, 1994.

Row | Percent displacement of L-[3H]Glu [%] | Compound
1 | 88.0 | N[C@@H](CC(Oc1ccccc1)C(=O)O)C(=O)O (some centres unmarked) [Compound 1, 4-Phenoxyglutamic Acid]
2 | 77.1 | NC(CC(Sc1ccccc1)C(=O)O)C(=O)O (centres unmarked) [Compound 2, 4-Benzenethioglutamic Acid]
3 | 82.4 | Cc1ccc(OC(C[C@H](N)C(=O)O)C(=O)O)cc1 (some centres unmarked) [Compound 3, 4-(4-Methylphenoxy)glutamic Acid]
4 | 66.5 | Cc1ccccc1OC(C[C@H](N)C(=O)O)C(=O)O (some centres unmarked) [Compound 4, 4-(2-Methylphenoxy)glutamic acid]
5 | 82.3 | COc1ccc(OC(C[C@H](N)C(=O)O)C(=O)O)cc1 (some centres unmarked) [Compound 5, 4-(4 Methoxyphenoxy)glutamic Acid]
6 | 53.9 | CC(C)c1ccc(OC(C[C@H](N)C(=O)O)C(=O)O)cc1 (some centres unmarked) [Compound 6, 4-(4-(Isopropyl)phenoxy)glutamic Acid]
7 | 72.0 | N[C@@H](CC(Oc1ccc(C2CCCC2)cc1)C(=O)O)C(=O)O (some centres unmarked) [Compound 7, 4-(4-Cyclopentylphenoxy)glutamic Acid]
8 | 52.3 | CC(C)(C)CC(C)(C)c1ccc(OC(C[C@H](N)C(=O)O)C(=O)O)cc1 (some centres unmarked) [Compound 8, 4-(4-(1,1,3,3-Tetramethylbutyl)phenoxy)glutamic Acid]
9 | 85.8 | CC(=O)c1ccc(OC(CC(N)C(=O)O)C(=O)O)cc1 (centres unmarked) [Compound 9]
10 | 77.9 | N[C@@H](CC(Oc1ccc(C(F)(F)F)cc1)C(=O)O)C(=O)O (some centres unmarked) [Compound 10, 4-(4-Trifluoromethylphenoxy)glutamic Acid]
11 | 86.7 | N[C@@H](CC(Oc1ccc(-c2ccccc2)cc1)C(=O)O)C(=O)O (some centres unmarked) [Compound 12, 4-(4-Phenylphenoxy)glutamic Acid]
12 | 81.6 | N[C@@H](CC(Oc1cccc(-c2ccccc2)c1)C(=O)O)C(=O)O (some centres unmarked) [Compound 13, 4-(3-Phenylphenoxy)glutamic Acid]
13 | 93.8 | N[C@@H](CC(Oc1ccc(Cc2ccccc2)cc1)C(=O)O)C(=O)O (some centres unmarked) [Compound 14, 4-(4-Benzylphenoxy)glutamic Acid]
14 | 85.9 | N[C@@H](CC(Oc1ccccc1Cc1ccccc1)C(=O)O)C(=O)O (some centres unmarked) [Compound 15, 4-(2-Benzylphenoxy)glutamic Acid]
15 | 76.9 | N[C@@H](CC(Oc1ccc(CCCCCCc2ccccc2)cc1)C(=O)O)C(=O)O (some centres unmarked) [Compound 16, 4-(4-(6-Phenylhexyl)phenoxy)glutamic Acid]
16 | 75.9 | N[C@@H](CC(Oc1ccc(CC=Cc2ccccc2)cc1)C(=O)O)C(=O)O (some centres unmarked) [Compound 17, 4-(4-(3-Phenylprop-2-enyl)phenoxy)glutamic Acid]
17 | 92.1 | N[C@@H](CC(Oc1ccc(C=Cc2ccc([N+](=O)[O-])cc2)cc1)C(=O)O)C(=O)O (some centres unmarked) [Compound 18, 4-(4-(2-(4-Nitrophenyl)ethenyl)phenoxy)glutamic Acid]
18 | 84.6 | N[C@@H](CC(Oc1ccc(Oc2ccccc2)cc1)C(=O)O)C(=O)O (some centres unmarked) [Compound 19, 4-(4-Phenoxyphenoxy)glutamic Acid]
19 | 67.8 | N[C@@H](CC(Oc1ccc(OCc2ccccc2)cc1)C(=O)O)C(=O)O (some centres unmarked) [Compound 20, 4-(4-Benzyloxyphenoxy)glutamic Acid]
20 | 95.9 | N[C@@H](CC(Oc1ccc2ccccc2c1)C(=O)O)C(=O)O (some centres unmarked) [Compound 21, 4-(2-Naphthyloxy)glutamic Acid]
21 | 93.9 | N[C@@H](CC(Oc1ccc2cc(Br)ccc2c1)C(=O)O)C(=O)O (some centres unmarked) [Compound 22, 4-(6-Bromo-2-naphthyloxy)glutamic Acid]
22 | 99.5 | N[C@@H](CC(Oc1ccc2cc(Br)ccc2c1Br)C(=O)O)C(=O)O (some centres unmarked) [Compound 23, 4-(1,6-Dibromo-2-naphthyloxy)glutamic Acid]

Row | Percent displacement of L-[3H]Glu [%] | Compound
23 | 100.6 | NC(CC(Sc1ccc2ccccc2c1)C(=O)O)C(=O)O (centres unmarked) [Compound 24, 4-(2-Naphthalenethio)glutamic Acid]
24 | 98.5 | N[C@@H](CC(Oc1cccc2ccccc12)C(=O)O)C(=O)O (some centres unmarked) [Compound 25, 4-(1-Naphthyloxy)glutamic Acid]
25 | 82.1 | N[C@@H](CC(Oc1cccc2c1CCCC2)C(=O)O)C(=O)O (some centres unmarked) [Compound 26, 4-(5,6,7,8-Tetrahydro-1-naphthyloxy)glutamic Acid]
26 | 66.5 | CC1(C)CCC(C)(C)c2cc(OC(C[C@H](N)C(=O)O)C(=O)O)ccc21 (some centres unmarked) [Compound 27, 4-(6,7-Dihydro-5,5,8,8-tetramethyl-2-naphthyloxy)glutamic Acid]
27 | 97.8 | N[C@@H](CC(Oc1ccc2c(c1)CCC2)C(=O)O)C(=O)O (some centres unmarked) [Compound 28, 4-(5-Indanyloxy)glutamic Acid]
28 | 89.0 | N[C@@H](CC(Oc1ccc2c(c1)OCO2)C(=O)O)C(=O)O (some centres unmarked) [Compound 29, 4-(3,4-Methylenedioxyphenoxy)glutamic Acid]
29 | 93.7 | N[C@@H](CC(Oc1ccc2c(c1)Cc1ccccc1-2)C(=O)O)C(=O)O (some centres unmarked) [Compound 30, 4-(2-Fluorenoxy)glutamic Acid]
30 | 99.4 | N[C@@H](CC(Oc1ccc2oc3ccccc3c2c1)C(=O)O)C(=O)O (some centres unmarked) [Compound 31, 4-(2-Dibenzofuranoxy)glutamic Acid]
31 | 92.6 | NC(CC(Oc1ccc2oc3c(c2c1)CCCC3)C(=O)O)C(=O)O (centres unmarked) [Compound 32, 4-(5,6,7,8-Tetrahydro-2-dibenzofuranoxy)glutamic Acid]
32 | 90.1 | Cc1cc2cc(OC(C[C@H](N)C(=O)O)C(=O)O)ccc2o1 (some centres unmarked) [Compound 33, 4-(2-Methyl-5-benzofuranyloxy)glutamic Acid]
33 | 95.3 | N[C@@H](CC(Oc1ccc2sccc2c1)C(=O)O)C(=O)O (some centres unmarked) [Compound 34, 4-(5-Benzothiophenyloxy)glutamic Acid]
34 | 92.4 | NC(CC(Oc1ccc(C(c2ccc(Cl)cc2)c2ccccn2)cc1)C(=O)O)C(=O)O (centres unmarked) [Compound 35]
35 | 81.3 | NC(CC(Sc1nncn1Cc1ccccc1)C(=O)O)C(=O)O (centres unmarked) [Compound 36, 4-(4-Benzyl-1,2,4-triazole-3-thio)glutamic Acid]
36 | 89.9 | N[C@@H](CC(Sc1n[nH]c(C=Cc2ccccc2Cl)n1)C(=O)O)C(=O)O (some centres unmarked) [Compound 38, 4-(5-((2-Chlorophenyl)ethenyl)-1,2,4-triazole-3-thio)glutamic Acid]
37 | 103.2 | Cc1ccc(O[C@@H](C[C@H](N)C(=O)O)C(=O)O)cc1 [Compound 44, (2S,4S)-4-(4-Methylphenoxy)glutamic Acid]
38 | 101.5 | N[C@@H](C[C@H](Oc1ccc2ccccc2c1)C(=O)O)C(=O)O [Compound 45, (2S,4S)-4-(2-Naphthyloxy)glutamic Acid]
39 | 85.5 | N[C@@H](C[C@H](Oc1ccc(-c2ccccc2)cc1)C(=O)O)C(=O)O [Compound 46, (2S,4S)-4-(4-Phenylphenoxy)glutamic Acid]
40 | 107.1 | N[C@@H](C[C@H](Oc1ccc2oc3ccccc3c2c1)C(=O)O)C(=O)O [Compound 47, (2S,4S)-4-(2-Dibenzofuranoxy)glutamic Acid]
41 | 91.9 | NC(CC(Oc1ccc(/C=C/c2ccccc2)cc1)C(=O)O)C(=O)O (centres unmarked) [Compound 48, 4-(4-(4-phenylethenyl)phenoxy)glutamic acid]
42 | 81.5 | N[C@@H](CC(Oc1ccc(CCc2ccccc2)cc1)C(=O)O)C(=O)O (some centres unmarked) [Compound 49, 4-(4-(2-phenylethyl)phenoxy)glutamic acid]
43 | 75.9 | NC(CC(Oc1ccc(CCCc2ccccc2)cc1)C(=O)O)C(=O)O (centres unmarked) [Compound 50]
44 | 81.0 | N[C@@H](CC(Oc1ccc(CCCCc2ccccc2)cc1)C(=O)O)C(=O)O (some centres unmarked) [Compound 51, 4-(4-(4-phenylbutyl)phenoxy)glutamic acid]
